Test results reported in paper PMC12250713, “Identification and Characterization of Novel Inhibitors of Human Poly(ADP-Ribose) Polymerase-1” (Molecules, 2025).
Where “and” joins values, the source holds several entries; their conditions need not be identical. Equal values may be shown once. Entries after “also recorded” stand apart in the source; their conditions may differ. Values belong to the compound of their own block, whether it stands above or below them.

What was measured:
[1] = target: T1, hPARP-1 (Homo sapiens, UniProt P09874); test: hPARP-1 enzyme assay (NAD+ cycling reaction, resorufin fluorescence read-out); type: biochemical; conditions: for IC50: 0.1-50 µM, mean ± SD, two biological replicates; for inhibition at 10 µM: concentration of 10 µM; for decline in PARPi activity compared with compound 54: replacement of the fluoride group; for PARPi activity at the enzyme level compared to the OLP core structure phthalazin-1(2H)-one: own IC50 vs literature IC50 12 µM; for reduction in the PARPi activity compared with compound 57: modification at the thiomethyl group
T1 construct: purchased Bio-Techne (Minneapolis, MN, USA)
Description: The putative PARP inhibitors, which were pre-selected in the in silico study, were subsequently evaluated by using an optimized biochemical hPARP-1 enzyme assay. The experiment was performed in black half-area 96-well plates. For the PARP reaction, 12.5 µL of PARP reaction solution were added. The solution was composed of 0.5 µg deoxyribonucleic acid (DNA) sodium salt from calf thymus, 2 U of recombinant hPARP-1, and 1 µL of the compound of interest in PARP reaction buffer (50 mM TRIS and 2 mM MgCl2 in ddH2O, pH = 8). These test compounds’ working solutions were prepared from 20 mM DMSO stock solutions and diluted using PARP reaction buffer to reach 25× of the required final concentration to be tested. […] Afterwards, 12.5 µL of NAD^+ solution were added to all wells to reach a final NAD^+ concentration of 50 nM, and to start the enzyme reaction.
Besides PARP reaction wells, NAD^+ calibration wells were included to measure the linearity of the detection of NAD^+ concentrations. In each well, 12.5 µL of NAD^+ calibration solution were added. The solution was composed of 0.5 µg deoxyribonucleic acid (DNA) sodium salt from calf thymus in PARP reaction buffer. Finally, 12.5 µL of decreasing concentrations of NAD^+ solution were added to the calibration wells (final concentrations: 50, 40, 30, 20, 10, 0 nM).
Subsequently, the assay plate including both the PARP reaction and NAD^+ calibration wells was gently shaken and incubated at 25 °C in the dark for 90 min. After incubation, 25 µL of detection solution were added to each well. […] The assay plate was again gently shaken and incubated at 25 °C in the dark for 40 min.
Following the aforementioned protocol, the compounds that were predicted by the in silico study as putative hPARP-1 inhibitors were tested at two different concentrations (1 and 10 µM). […] The IC50s were calculated by using GraphPad Prism software and a non-linear four-parametric regression function.

[2] = tested on: BT-474 cells; test: crystal violet (CV) cell viability assay, single and combined with TMZ; type: cell-based
Description: (§1) Cells were seeded in 96-well cell culture plates and were allowed to adhere for 24 h in a humidified atmosphere with 5% CO2 at 37 °C. Afterward, cells were treated with the test items at several concentrations for 72 h. […] After finalization of the intended 72 h treatment, the treatment solutions were discarded, and the cells were washed once with PBS. Subsequently, the cells were fixed by incubation in 4% (v/v) paraformaldehyde in PBS for 15 min at room temperature (RT). The fixing solution was discarded, and the cells were allowed to dry at RT for 15 min. The cells were stained with 0.1% (w/v) crystal violet in PBS for 15 min at RT, then washed with ddH2O and dried overnight at RT. […] The obtained absorbance data were normalized based on the negative and positive controls representing 100% and 0% cell viability, respectively. IC50 values were calculated by using a four-parametric non-linear regression analysis in GraphPad Prism software.
(§2) Finally, cell viability was determined by using the CV assay, and IC50 values were calculated as mentioned above.

[3] = tested on: MDA-MB-468 cells; test: cells; type: cell-based; conditions: for cytotoxic activity as a monotherapy against MDA-MB-468: CV assay
Description: as §1, §2

[4] = target: T2, hPARP-1 in BT-474 cells (Homo sapiens, UniProt P09874); test: fluorescence microscopy, competitive displacement of PARPi-FL; type: cell-based; conditions: BT-474, 72 h with 100 µM compound 57 or 1.56 µM OLP, then 250 nM PARPi-FL 20 min
T2 construct: endogenous in cells; host or cells: BT-474
Description: For the determination of the interaction of the proposed PARPi and the PARP binding pocket inside the treated cells, a fluorescence microscopic inspection was performed. Using a green fluorescently labeled molecule named PARPi-FL that is characterized by the ability to occupy specifically the binding pocket of the PARP enzyme. Moreover, in case of its competitive replacement by PARPi molecules a reduction in its fluorescent signal is detectable. Thus, cells were seeded in 6-well plates and incubated in a humidified atmosphere with 5% CO2 for 24 h at 37 °C. […] Subsequently, the treatment solutions were discarded, and the cells were washed with PBS. […] Finally, cells were imaged by using the GFP channel of an EVOS™ FL Auto Imaging System (Thermo Fisher Scientific, Waltham, MA, USA).

[5] = tested on: HCC1937 cells; test: crystal violet (CV) cell viability assay, single and combined with TMZ; type: cell-based; conditions: Homo sapiens, HCC1937, 72 h; read-out: IC50 of TMZ, alone or combined
Description: as §1, §2

[6] = tested on: 184B5 cells; test: as above; type: cell-based; conditions: Homo sapiens, 184B5, 72 h; read-out: IC50 of TMZ, alone or combined
Description: as §1, §2

[7] = tested on: MCF-7 cells; test: as above; type: cell-based; conditions: Homo sapiens, MCF7, 72 h; read-out: IC50 of TMZ, alone or combined
Description: as §1, §2

T1 sequence (P09874 whole entry): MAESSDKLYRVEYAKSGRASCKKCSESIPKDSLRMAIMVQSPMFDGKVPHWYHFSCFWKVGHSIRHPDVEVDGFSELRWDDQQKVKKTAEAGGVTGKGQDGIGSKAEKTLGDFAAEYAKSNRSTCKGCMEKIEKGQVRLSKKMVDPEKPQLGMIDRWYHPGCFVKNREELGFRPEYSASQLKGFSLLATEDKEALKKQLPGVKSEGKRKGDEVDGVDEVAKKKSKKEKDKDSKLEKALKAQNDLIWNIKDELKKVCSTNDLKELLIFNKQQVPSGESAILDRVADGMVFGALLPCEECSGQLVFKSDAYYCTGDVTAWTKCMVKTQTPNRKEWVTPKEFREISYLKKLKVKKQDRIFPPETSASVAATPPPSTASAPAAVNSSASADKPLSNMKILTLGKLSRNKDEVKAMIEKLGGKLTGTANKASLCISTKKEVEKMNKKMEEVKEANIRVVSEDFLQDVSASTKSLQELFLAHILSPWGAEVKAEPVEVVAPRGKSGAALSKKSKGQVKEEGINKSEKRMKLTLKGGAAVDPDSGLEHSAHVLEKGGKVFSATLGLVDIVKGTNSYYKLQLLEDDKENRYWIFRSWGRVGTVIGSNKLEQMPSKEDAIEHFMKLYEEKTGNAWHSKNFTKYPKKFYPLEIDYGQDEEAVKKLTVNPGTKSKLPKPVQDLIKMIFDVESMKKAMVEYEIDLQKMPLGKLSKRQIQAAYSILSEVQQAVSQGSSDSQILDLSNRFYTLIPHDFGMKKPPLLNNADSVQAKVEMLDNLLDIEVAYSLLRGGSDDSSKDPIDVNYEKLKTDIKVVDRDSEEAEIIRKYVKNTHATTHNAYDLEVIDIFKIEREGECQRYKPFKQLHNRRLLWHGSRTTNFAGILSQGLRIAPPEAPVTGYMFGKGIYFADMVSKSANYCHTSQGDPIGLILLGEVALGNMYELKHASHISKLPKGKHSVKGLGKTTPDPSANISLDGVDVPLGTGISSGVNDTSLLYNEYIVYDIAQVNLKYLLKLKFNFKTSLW
T2 sequence (P09874 whole entry): as above

Structure (SMILES): COc1cccc(Nc2nc3ccccc3c(=O)[nH]2)c1 [Compound 18]
IC50 [1]: 23.5 ± 8.74 µM | inhibition at 10 µM [1]: > 50%

Structure (SMILES): O=C(Nc1nc2c(c(=O)[nH]1)CCCC2)c1ccc(Cl)cc1 [Compound 32]
decline in PARPi activity compared with compound 54 [1]: at least three-fold

Structure (SMILES): Cc1ccc(C(=O)Nc2nc3c(c(=O)[nH]2)CCCC3)cc1 [Compound 34]
decline in PARPi activity compared with compound 54 [1]: at least three-fold

Structure (SMILES): O=C(Nc1nc2c(c(=O)[nH]1)CCCC2)c1ccc(F)cc1 [Compound 54]
IC50 [1]: 4.56 µM | inhibition at 10 µM [1]: > 50% | PARPi activity at the enzyme level compared to the OLP core structure phthalazin-1(2H)-one [1]: two-fold higher

Structure (SMILES): CSc1nc2ccccc2c(=O)[nH]1 [Compound 57, 2-(methylthio)quinazolin-4(3H)-one]
IC10 (CV cytotoxicity assay) ([2]; BT-474 cells, 72 h): 100 µM | cytotoxic activity as a monotherapy against MDA-MB-468 ([3]; 72 h): such an effect was not observed | synergistic improvement of the TMZ activity by co-treatment ([3]; co-treatment at IC10 (100 µM compound 57), 72 h): did not induce a synergistic improvement | IC50 [1]: 2.3 µM and 2.32 µM | inhibition at 10 µM [1]: > 50% | fold higher hPARP-1-inhibiting activity compared to core structure quinazolin-4(3H)-one ([1]; own IC50 vs literature IC50 5.8 µM): 2.5 fold | PARPi activity at the enzyme level compared to the OLP core structure phthalazin-1(2H)-one [1]: five-fold higher | displacement of PARPi-FL from nuclear hPARP-1 (fluorescence) [4]: failed to reach the nuclei of BT-474 cells; also recorded: did not impact the fluorescent appearance of the stain

Structure (SMILES): N#CCc1n[nH]c(=O)c2ccccc12 [Compound 58]
IC50 [1]: 4.86 ± 0.63 µM | inhibition at 10 µM [1]: > 50%

Structure (SMILES): CSc1nc2ccccc2c(=O)n1Cc1ccccc1 [Compound 63]
hPARP-1 inhibitor activity compared with compound 57 (SAR, in words) [1]: complete abolishment of hPARP-1 inhibitor activity | IC50 [1]: > 10 µM

Structure (SMILES): COc1cc2nc(SC)[nH]c(=O)c2cc1OC [Compound 64]
hPARP-1 inhibitor activity compared with compound 57 (SAR, in words) [1]: dramatic decrease in activity | IC50 [1]: > 10 µM

Structure (SMILES): CSc1nc2cc([N+](=O)[O-])ccc2c(=O)[nH]1 [Compound 66]
hPARP-1 inhibitor activity compared with compound 57 (SAR, in words) [1]: dramatic decrease in activity | IC50 [1]: > 10 µM

Structure (SMILES): C=CCSc1nc2ccccc2c(=O)[nH]1 [Compound 67]
IC50 [1]: > 10 µM | reduction in the PARPi activity compared with compound 57 [1]: at least four-fold

Structure (SMILES): C#CCSc1nc2ccccc2c(=O)[nH]1 [Compound 68]
IC50 [1]: > 10 µM | reduction in the PARPi activity compared with compound 57 [1]: at least four-fold

Structure (SMILES): O=c1[nH]c(SCCC(F)=C(F)F)nc2ccccc12 [Compound 69]
IC50 [1]: > 10 µM | reduction in the PARPi activity compared with compound 57 [1]: at least four-fold

Structure (SMILES): O=C(c1cc(Cc2n[nH]c(=O)c3ccccc23)ccc1F)N1CCN(C(=O)C2CC2)CC1 [OLP, olaparib]
cytotoxic activity as a monotherapy against MDA-MB-468 ([3]; 72 h): good and selective cytotoxic activity | IC10 (CV cytotoxicity assay) ([3]; MDA-MB-468 cells, 72 h): 1.56 µM

Further lines, with some results ahead:

IC50 [1]: 14.9 ± 4.92 µM | inhibition at 10 µM [1]: > 50% | decline in PARPi activity compared with compound 54 [1]: at least three-fold
Structure (SMILES): COc1ccc(C(=O)Nc2nc3c(c(=O)[nH]2)CCCC3)cc1 [Compound 21]

IC50 [1]: 4.57 ± 4.89 µM | inhibition at 10 µM [1]: > 50%
Structure (SMILES): O=c1[nH]nc(CNc2ccc([N+](=O)[O-])cc2)c2ccccc12 [Compound 22]

IC50 [1]: 3.01 ± 1.19 µM | inhibition at 10 µM [1]: > 50%
Structure (SMILES): COc1ccc(NCc2nnc(O)c3ccccc23)cc1 [Compound 45]

IC50 [1]: 6.61 ± 2.09 µM | inhibition at 10 µM [1]: > 50%
Structure (SMILES): O=c1[nH]nc(-c2ccccc2)c2ccccc12 [Compound 56]

IC50 [1]: > 10 µM
Structure (SMILES): CSc1nc2ccccc2c(=O)n1C [Compound 62]
hPARP-1 inhibitor activity compared with compound 57 (SAR, in words) [1]: complete abolishment of hPARP-1 inhibitor activity

hPARP-1 inhibitor activity compared with compound 57 (SAR, in words) [1]: dramatic decrease in activity | IC50 [1]: > 10 µM
Structure (SMILES): CSc1nc2ccc([N+](=O)[O-])cc2c(=O)[nH]1 [Compound 65]

IC50 [5]: 3740 ± 1500 µM | IC50 ([2]; Homo sapiens, BT-474, 72 h, read-out: IC50 of TMZ, alone or combined): 2210 ± 10 µM | IC50 [7]: 3440 ± 1720 µM | IC50 ([3]; Homo sapiens, MDA-MB-468, 72 h, read-out: IC50 of TMZ, alone or combined): 2060 ± 790 µM
Structure (SMILES): Cn1nnc2c(C(N)=O)ncn2c1=O [TMZ, temozolomide]
IC50 [6]: 980 ± 820 µM
